Measurements as given in PubChem BioAssay (NCI).
Where “and” joins values, the source holds several entries; their conditions need not be identical. Equal entries are not always repeated.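 The compound was tested at five concentrations on cells cultured in 96-well plates, with a 48-hour exposure period. GI50: concentration for 50% inhibition of growth. TGI marks complete inhibition of growth.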

Columns and labels:
Assay in all cases: NCI anticancer screen, dose series, 48 h
[1] = tested on: EKVX NSCLC
[2] = tested on: CAKI-1 renal
[3] = tested on: HS 578T breast
[4] = tested on: UACC-257 melanoma
[5] = tested on: DU-145 prostate
[6] = tested on: HCC-2998 colon
[7] = tested on: NCI/ADR-RES ovarian
[8] = tested on: MCF7 breast
[9] = tested on: HT29 colon
[10] = tested on: KM12 colon

| SMILES | GI50 [1] | TGI [1] | GI50 [2] | TGI [2] | GI50 [3] | TGI [3] | GI50 [4] | TGI [4] | GI50 [5] | TGI [5] | GI50 [6] | TGI [6] | GI50 [7] | TGI [7] | GI50 [8] | TGI [8] | GI50 [9] | TGI [9] | GI50 [10] | TGI [10] |
| --- | --- | --- | --- | --- | --- | --- | --- | --- | --- | --- | --- | --- | --- | --- | --- | --- | --- | --- | --- | --- |
| CC12CCC3C(CCC4Cc5[nH]c6ccccc6c5CC43C)C1CCC2O (centres undefined) | 3.69 µM | > 100 µM | 0.791 µM | > 100 µM | 0.362 µM | 1.88 µM | > 100 µM | > 100 µM | 1.69 µM | 5.5 µM | 0.633 µM | 2.54 µM | 0.481 µM | 5.54 µM | 0.373 µM | > 100 µM | 1.58 µM | > 27.1 µM | 2.8 µM | 8.61 µM |
| O=C[C@@H](CO)O[C@H](C=O)c1c[nH]c(=O)[nH]c1=O | – | 329 µM | – | 250 µM | – | 402 µM | – | 657 µM | – | 437 µM | – | 338 µM | – | 536 µM | – | 428 µM | – | 595 µM | – | 362 µM |
| CCSCC1CC(O)(c2ccccc2)C(c2ccccc2)C(c2ccc(Cl)cc2)O1 (centres undefined) | 1.38 µM | 4.29 µM | 1.49 µM | 4.06 µM | 2.5 µM | 8.87 µM | 1.83 µM | 3.95 µM | 1.99 µM | 4.4 µM | 1.82 µM | 3.58 µM | 1.97 µM | 5.34 µM | 1.85 µM | 5.35 µM | 1.09 µM | 3.17 µM | 2.56 µM | 6.92 µM |
| Cc1c(N2CCCC2)cc2c(c1NC(=O)c1ccccc1Cl)C(C)(C)CC2(C)C | – | 29.9 µM | – | 26.1 µM | – | 38.4 µM | – | 24.1 µM | – | 29.3 µM | – | 25.9 µM | – | 29.5 µM | – | 28.4 µM | – | 29.4 µM | – | 30.3 µM |
| CCN1CCN(Cc2ccc(-c3cc4c(N[C@H](C)c5ccccc5)ncnc4[nH]3)cc2)CC1 | 0.308 µM | > 10 µM | 0.252 µM and 1.27 µM | 3.17 µM and > 10 µM | 2.1 µM and 0.763 µM | 9.79 µM and 5.24 µM | 1.76 µM and 1.83 µM | 3.38 µM and 3.41 µM | 1.78 µM and 2.38 µM | 19.9 µM and > 10 µM | 7.63 µM and > 10 µM | 22.3 µM and > 10 µM | 4.69 µM and 4.78 µM | 29.9 µM and > 10 µM | 2.78 µM and 2.68 µM | 15.9 µM and > 10 µM | 1.99 µM and 2.41 µM | 8.77 µM and > 10 µM | 3.84 µM and 3.5 µM | 14.4 µM and > 10 µM |
| Cc1c2cc[n+](C)cc2c(C)c2c1sc1ccccc12 | – | > 50.2 µM | – | 60.6 µM | – | 0.692 µM | – | 7.01 µM | – | 5.07 µM | – | 6.28 µM | – | > 100 µM | – | 41.8 µM | – | 25.4 µM | – | 2.97 µM |
| C[C@@H]1COCCN1c1cc(C2([S@](C)(=N)=O)CC2)nc(-c2ccnc3[nH]ccc23)n1 | 6.07 µM and > 10 µM | 61.7 µM and > 10 µM | 6.06 µM and 4.17 µM | 75.9 µM and > 10 µM | 2.93 µM and 3.72 µM | 29.6 µM and > 10 µM | 14 µM and > 10 µM | 74 µM and > 10 µM | 3.1 µM and 3.64 µM | > 100 µM | 2.56 µM and 4.97 µM | > 100 µM | 26.2 µM and > 10 µM | > 100 µM | 0.417 µM and 0.611 µM | 39 µM and > 10 µM | 4.27 µM and 4.99 µM | > 100 µM | 4.21 µM and 3.95 µM | > 100 µM |
| COc1ccc(OC)c(/C=N/NC(=O)Cc2csc3nc(-c4ccc(Br)cc4)cn23)c1 | 17.1 µM | 57.6 µM | 12.6 µM | 34.2 µM | 11.6 µM | 45.4 µM | 23.9 µM | 97.5 µM | 17.9 µM | 48 µM | 10 µM | 34.9 µM | 12.8 µM | 35.4 µM | 29.7 µM | > 100 µM | 16.4 µM | > 100 µM | 8.84 µM | > 100 µM |
| CCCCCCCCCCCCNC(C)=O | – | 25.6 µM | – | 39.3 µM | – | 31.1 µM | – | 63.9 µM | – | > 100 µM | – | 37.5 µM | – | 33.3 µM | – | 32.4 µM | – | 33.6 µM | – | 35.7 µM |
| Cc1cccc(NC(=O)CCc2ccc(N3C(N)=NC(N)=NC3(C)C)cc2)c1 | – | > 100 µM | 97.3 µM | > 100 µM | > 52 µM | > 100 µM | 28.1 µM | > 100 µM | 0.941 µM | > 100 µM | 3.34 µM | > 100 µM | > 100 µM | > 100 µM | 1.24 µM | > 100 µM | 0.364 µM | > 100 µM | 1.24 µM | > 100 µM |
| C=CC[n+]1c(/C=C/C=C2\N(C)c3ccccc3C2(C)C)sc2ccc(OC)cc21 | 0.264 µM | 15.5 µM | – | – | 0.465 µM | 25.4 µM | 0.197 µM | 0.733 µM | 0.34 µM | 15.6 µM | 0.258 µM | 21.3 µM | 7.76 µM | 69.2 µM | 0.157 µM | 11.4 µM | 0.272 µM | 6.05 µM | 0.249 µM | 11.7 µM |
| NC(=O)NNCc1ccccc1 | – | > 100 µM | – | > 100 µM | – | > 100 µM | – | > 100 µM | – | > 100 µM | – | > 100 µM | – | > 100 µM | – | > 100 µM | – | > 100 µM | – | > 100 µM |
| FC(F)(F)c1nc(N2CCCC2)ncc1-c1nnnn1-c1ccc(Cl)cc1 | 29 µM | > 100 µM | 17.5 µM | 88.2 µM | 21.2 µM | > 100 µM | 7.11 µM | 69.5 µM | 48.4 µM | > 100 µM | 26.7 µM | 72.2 µM | 23 µM | 62.2 µM | 14.3 µM | > 100 µM | 20.4 µM | 65.9 µM | 15 µM | 48 µM |
| OC(c1cccc(-n2ccc(C(F)(F)F)n2)c1)c1cnccc1NC1CCCCCC1 (centres undefined) | 1.66 µM | 3.16 µM | 1.57 µM | 2.96 µM | 1.64 µM | 3.69 µM | 1.86 µM | 3.76 µM | 1.81 µM | 3.24 µM | 1.61 µM | 3.03 µM | 1.81 µM | 3.35 µM | 1.53 µM | 3.11 µM | 1.8 µM | 4.33 µM | 1.87 µM | 3.54 µM |
| Cc1ccc(S(=O)(=O)OC2CCN(C)CC2)cc1 | – | > 100 µM | – | – | – | > 100 µM | – | > 100 µM | – | > 100 µM | – | – | – | > 100 µM | – | > 100 µM | – | > 100 µM | – | – |
